From ChEMBL document CHEMBL3994587, “An insight on synthetic and medicinal aspects of pyrazolo[1,5-a]pyrimidine scaffold” (Eur J Med Chem, 2017) come the findings set out here.

≈ marks a conversion by molar mass, not a printed value.

What is called IC50 is the point on the concentration scale where inhibition reaches its midpoint. The term MIC denotes the lowest concentration found to suppress growth. What is called inhibition is the drop in the measured response relative to a control, in per cent. As usually defined, the Ki is the dissociation constant of the complex between target and ligand, obtained from inhibition or displacement.

One assay relates to Ehrlich. Description: Cytotoxicity against mouse EAC cells assessed as cell growth inhibition measured after 2 hrs by trypan blue exclusion assay. The format is functional, cell-based.
In the next assay the test system is A549. As to the kind of experiment: Cytotoxicity against human A549 cells assessed as cell growth inhibition measured after 48 hrs by SRB assay. In kind it is functional, cell-based. To be noted: A549, 48 h. (In general: In SRB staining, fixed cells bind dye roughly in proportion to their protein.)
Another assay deals with HepG2. Description: Cytotoxicity against human HepG2 cells assessed as cell growth inhibition measured after 48 hrs by SRB assay. Particulars: HepG2, 48 h. In kind it is functional, cell-based.
Another assay has as its system MCF7. Description: Cytotoxicity against human MCF7 cells assessed as cell growth inhibition measured after 48 hrs by SRB assay. In kind it is functional, cell-based. Particulars: MCF7, 48 h.
Assay [1] deals with T1, Estrogen receptor (Homo sapiens) (UniProt P03372).
T1 sequence (whole entry): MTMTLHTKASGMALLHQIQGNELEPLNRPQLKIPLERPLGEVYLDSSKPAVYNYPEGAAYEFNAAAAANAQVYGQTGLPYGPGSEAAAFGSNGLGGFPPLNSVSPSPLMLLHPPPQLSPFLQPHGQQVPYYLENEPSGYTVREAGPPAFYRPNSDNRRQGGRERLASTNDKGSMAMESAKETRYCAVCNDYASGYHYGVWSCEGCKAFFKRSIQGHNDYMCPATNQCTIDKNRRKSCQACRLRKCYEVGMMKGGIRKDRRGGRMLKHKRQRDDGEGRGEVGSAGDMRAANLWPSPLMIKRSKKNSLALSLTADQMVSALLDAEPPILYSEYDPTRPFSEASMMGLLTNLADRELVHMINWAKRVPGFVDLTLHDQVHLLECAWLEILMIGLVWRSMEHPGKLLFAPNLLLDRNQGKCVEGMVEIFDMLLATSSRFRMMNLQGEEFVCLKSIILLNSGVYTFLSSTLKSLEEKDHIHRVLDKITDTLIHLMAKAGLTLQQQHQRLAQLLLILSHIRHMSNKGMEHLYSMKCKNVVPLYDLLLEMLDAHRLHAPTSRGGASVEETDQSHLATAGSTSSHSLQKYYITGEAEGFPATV
Description: Displacement of [3H]E2 from ERalpha (unknown origin) by radiometric assay relative to estradiol. (In a radioligand displacement assay an active substance lowers the binding of a labelled ligand.)

Assay [2] addresses Estrogen receptor beta (Homo sapiens) (UniProt Q92731). Description: Displacement of [3H]E2 from ERbeta (unknown origin) by radiometric assay relative to estradiol.
The subject of assay [3] is Trypanosoma cruzi. Description: Antitrypanosomal activity against Trypanosoma cruzi by serial dilution method. The format is functional.
In assay [4] the test system is Trypanosoma cruzi. Description: Antitrypanosomal activity against bloodstream forms of Trypanosoma cruzi brazilian infected in C3H/He mouse assessed as increase in mean survival time at 100 mg/kg administered twice daily for 5 days via oral gavage starting from 3 days post infection. The format is functional.
The species named for assay [5] is Oryctolagus cuniculus. Description: Potency index, ratio of theophylline IC50 to compound IC50 for inhibition of PDE in rabbit lung homogenates using [8-3H]cAMP as substrate measured 3 times between 3 to 12 mins. In kind it is tissue-based.
For assay [6], the species on record is Oryctolagus cuniculus. As to the kind of experiment: Potency index, ratio of theophylline IC50 to compound IC50 for inhibition of PDE in rabbit kidney homogenates using [8-3H]cAMP as substrate measured 3 times between 3 to 12 mins. In kind it is tissue-based.
The species named for a further assay is Sus scrofa. As to the kind of experiment: Inhibition of PDE in pig blood assessed as suppression of ADP-induced platelet aggregation at 50 ug/ml by turbidimetric method relative to control.
For another assay, the species on record is Bos taurus. As to the kind of experiment: Displacement of [3H]RO15-1788 from benzodiazepine receptor in recombinant bovine brain membranes expressed in HEK293 cells at 0.2 nM after 1 hr relative to control. The format is cell-based. Particulars: Membrane.
Assay [7] concerns the target Gamma-aminobutyric acid receptor subunit alpha-1 (Rattus norvegicus, UniProt P62813). As to the kind of experiment: Displacement of [3H]RO15-1788 from recombinant rat GABAalpha1 receptor expressed in HEK293 cells after 1 hr. In kind it is cell-based.
Assay [8] can be described thus: Displacement of [3H]RO15-1788 from benzodiazepine receptor in recombinant bovine brain membranes expressed in HEK293 cells after 1 hr. In kind it is cell-based, Bos taurus, Membrane.
Assay [9] addresses Gamma-aminobutyric acid receptor subunit alpha-2 (Rattus norvegicus, UniProt P23576). As to the kind of experiment: Displacement of [3H]RO15-1788 from recombinant rat GABAalpha2 receptor expressed in HEK293 cells after 1 hr. In kind it is cell-based.
Assay [10] has as its target Gamma-aminobutyric acid receptor subunit alpha-5 (Rattus norvegicus, UniProt P19969). As to the kind of experiment: Displacement of [3H]RO15-1788 from recombinant rat GABAalpha5 receptor expressed in HEK293 cells after 1 hr. The format is cell-based.
Assay [11] has as its target T2, Corticotropin-releasing factor receptor 1 (Homo sapiens, UniProt P34998).
T2 sequence (P34998 whole entry): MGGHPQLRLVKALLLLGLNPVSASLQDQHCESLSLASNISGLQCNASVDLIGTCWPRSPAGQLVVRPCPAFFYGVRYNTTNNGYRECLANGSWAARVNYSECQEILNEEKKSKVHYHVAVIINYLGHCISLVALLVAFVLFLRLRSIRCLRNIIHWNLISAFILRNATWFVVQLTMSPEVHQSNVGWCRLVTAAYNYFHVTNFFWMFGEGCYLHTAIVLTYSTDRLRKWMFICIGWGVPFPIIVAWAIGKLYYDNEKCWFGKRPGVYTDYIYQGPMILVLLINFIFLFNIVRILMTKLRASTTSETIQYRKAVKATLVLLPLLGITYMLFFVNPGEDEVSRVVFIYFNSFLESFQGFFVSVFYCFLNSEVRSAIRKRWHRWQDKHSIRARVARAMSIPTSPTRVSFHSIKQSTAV
As to the kind of experiment: Displacement of [125I-Tyr0]-CRF from recombinant human CRF1 receptor.

The subject of the next assay is Bel-7402. Description: Antiproliferative activity against human Bel7402 cells measured after 24 hrs by MTT assay. In kind it is functional, cell-based. Particulars: Bel-7402, 24 h. Background: Tetrazolium dyes change colour on reduction, which living cells bring about.
The test system of another assay is HT-1080. As to the kind of experiment: Antiproliferative activity against human HT1080 cells measured after 24 hrs by MTT assay. In kind it is functional, cell-based. To be noted: HT-1080, 24 h.
In another assay the test system is HCT-116. As to the kind of experiment: Antiproliferative activity against human HCT116 cells measured after 48 hrs by SRB assay. The format is functional, cell-based. To be noted: HCT-116, 48 h.
Assay [12] has as its target Vascular endothelial growth factor receptor 2 (Homo sapiens, UniProt P35968). Description: biochemical.
Description: Inhibition of recombinant human GST-fused KDR kinase expressed in insect Sf21 cells using poly-Glu/Tyr (4:1) peptide as substrate by ECMA
The next assay deals with Caco-2. As to the kind of experiment: Antiproliferative activity against human Caco2 cells measured after 48 hrs by SRB assay. The format is functional, cell-based. Particulars: Caco-2, 48 h.
For another assay, the system named is BHK-21. As to the kind of experiment: Antiproliferative activity against golden hamster BHK21 cells measured after 48 hrs by SRB assay. To be noted: Mesocricetus auratus, BHK-21, 48 h. The format is cell-based.
The next assay concerns Staphylococcus aureus. As to the kind of experiment: Antibacterial activity against Staphylococcus aureus RCMB 000108 assessed as zone of inhibition at 30 ug/ml. To be noted: read-out: IZ. In kind it is functional.
In a further assay the test system is Escherichia coli. As to the kind of experiment: Antibacterial activity against Escherichia coli RCMB 000106 assessed as zone of inhibition at 30 ug/ml. The format is functional. Particulars: read-out: IZ.
The test system of the next assay is Bacillus subtilis. As to the kind of experiment: Antibacterial activity against Bacillus subtilis RCMB 000109 assessed as zone of inhibition at 30 ug/ml. To be noted: read-out: IZ. In kind it is functional.
The test system of a further assay is Pseudomonas aeruginosa. Description: Antibacterial activity against Pseudomonas aeruginosa RCMB 000103 assessed as zone of inhibition at 30 ug/ml. In kind it is functional. To be noted: read-out: IZ.

Chain of Estrogen receptor beta (Homo sapiens) (Q92731 whole entry): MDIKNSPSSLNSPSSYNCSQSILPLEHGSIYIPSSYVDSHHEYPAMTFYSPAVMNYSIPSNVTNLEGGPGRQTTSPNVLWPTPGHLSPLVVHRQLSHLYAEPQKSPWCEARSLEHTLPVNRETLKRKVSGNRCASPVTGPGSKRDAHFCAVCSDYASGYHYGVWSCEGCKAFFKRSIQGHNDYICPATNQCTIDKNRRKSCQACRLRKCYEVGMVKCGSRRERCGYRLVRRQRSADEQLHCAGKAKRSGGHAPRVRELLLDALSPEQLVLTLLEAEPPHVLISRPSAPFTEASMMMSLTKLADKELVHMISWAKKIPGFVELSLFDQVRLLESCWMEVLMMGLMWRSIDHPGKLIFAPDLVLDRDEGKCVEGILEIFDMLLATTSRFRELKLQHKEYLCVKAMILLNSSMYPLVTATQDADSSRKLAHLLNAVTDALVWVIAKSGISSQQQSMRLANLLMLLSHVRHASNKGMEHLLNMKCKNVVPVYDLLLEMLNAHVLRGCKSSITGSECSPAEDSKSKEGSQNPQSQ
Chain of Gamma-aminobutyric acid receptor subunit alpha-2 (P23576 whole entry): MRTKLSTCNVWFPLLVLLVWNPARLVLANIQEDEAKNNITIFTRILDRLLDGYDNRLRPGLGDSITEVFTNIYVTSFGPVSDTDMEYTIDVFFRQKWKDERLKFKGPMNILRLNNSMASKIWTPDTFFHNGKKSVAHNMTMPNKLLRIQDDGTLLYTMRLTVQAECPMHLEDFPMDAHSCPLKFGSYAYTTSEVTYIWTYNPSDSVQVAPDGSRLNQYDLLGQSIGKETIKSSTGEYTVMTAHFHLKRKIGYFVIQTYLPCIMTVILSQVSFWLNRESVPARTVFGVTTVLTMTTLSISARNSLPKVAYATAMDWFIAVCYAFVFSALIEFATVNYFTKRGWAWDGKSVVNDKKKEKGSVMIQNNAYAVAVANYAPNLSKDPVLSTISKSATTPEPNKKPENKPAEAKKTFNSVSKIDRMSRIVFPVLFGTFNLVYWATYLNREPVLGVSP
Chain of Gamma-aminobutyric acid receptor subunit alpha-5 (P19969 whole entry): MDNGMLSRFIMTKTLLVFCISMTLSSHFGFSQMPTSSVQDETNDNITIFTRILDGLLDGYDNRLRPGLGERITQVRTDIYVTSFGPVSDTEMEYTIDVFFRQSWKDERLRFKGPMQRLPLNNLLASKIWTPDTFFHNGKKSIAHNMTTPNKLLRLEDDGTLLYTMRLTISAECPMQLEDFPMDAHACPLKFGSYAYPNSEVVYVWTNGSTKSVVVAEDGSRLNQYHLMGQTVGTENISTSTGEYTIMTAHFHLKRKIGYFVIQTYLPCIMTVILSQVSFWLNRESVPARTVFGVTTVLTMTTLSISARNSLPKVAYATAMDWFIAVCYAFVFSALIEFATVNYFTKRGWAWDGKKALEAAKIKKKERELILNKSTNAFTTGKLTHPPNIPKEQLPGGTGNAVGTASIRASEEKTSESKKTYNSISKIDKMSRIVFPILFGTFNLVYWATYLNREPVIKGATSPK
Chain of Gamma-aminobutyric acid receptor subunit alpha-1 (P62813 whole entry): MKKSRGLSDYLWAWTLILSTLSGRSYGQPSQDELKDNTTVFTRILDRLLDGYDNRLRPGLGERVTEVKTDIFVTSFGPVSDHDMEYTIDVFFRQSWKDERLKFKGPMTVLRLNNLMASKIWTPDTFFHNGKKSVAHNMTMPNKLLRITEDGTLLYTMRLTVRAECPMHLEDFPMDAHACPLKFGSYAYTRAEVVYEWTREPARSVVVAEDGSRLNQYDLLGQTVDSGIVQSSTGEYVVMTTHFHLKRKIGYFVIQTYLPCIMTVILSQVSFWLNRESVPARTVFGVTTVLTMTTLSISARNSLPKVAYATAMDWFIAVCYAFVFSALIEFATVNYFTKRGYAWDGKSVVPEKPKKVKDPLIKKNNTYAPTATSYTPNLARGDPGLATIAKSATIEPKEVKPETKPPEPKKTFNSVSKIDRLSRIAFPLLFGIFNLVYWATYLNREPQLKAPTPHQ
Chain of Vascular endothelial growth factor receptor 2 (P35968 whole entry): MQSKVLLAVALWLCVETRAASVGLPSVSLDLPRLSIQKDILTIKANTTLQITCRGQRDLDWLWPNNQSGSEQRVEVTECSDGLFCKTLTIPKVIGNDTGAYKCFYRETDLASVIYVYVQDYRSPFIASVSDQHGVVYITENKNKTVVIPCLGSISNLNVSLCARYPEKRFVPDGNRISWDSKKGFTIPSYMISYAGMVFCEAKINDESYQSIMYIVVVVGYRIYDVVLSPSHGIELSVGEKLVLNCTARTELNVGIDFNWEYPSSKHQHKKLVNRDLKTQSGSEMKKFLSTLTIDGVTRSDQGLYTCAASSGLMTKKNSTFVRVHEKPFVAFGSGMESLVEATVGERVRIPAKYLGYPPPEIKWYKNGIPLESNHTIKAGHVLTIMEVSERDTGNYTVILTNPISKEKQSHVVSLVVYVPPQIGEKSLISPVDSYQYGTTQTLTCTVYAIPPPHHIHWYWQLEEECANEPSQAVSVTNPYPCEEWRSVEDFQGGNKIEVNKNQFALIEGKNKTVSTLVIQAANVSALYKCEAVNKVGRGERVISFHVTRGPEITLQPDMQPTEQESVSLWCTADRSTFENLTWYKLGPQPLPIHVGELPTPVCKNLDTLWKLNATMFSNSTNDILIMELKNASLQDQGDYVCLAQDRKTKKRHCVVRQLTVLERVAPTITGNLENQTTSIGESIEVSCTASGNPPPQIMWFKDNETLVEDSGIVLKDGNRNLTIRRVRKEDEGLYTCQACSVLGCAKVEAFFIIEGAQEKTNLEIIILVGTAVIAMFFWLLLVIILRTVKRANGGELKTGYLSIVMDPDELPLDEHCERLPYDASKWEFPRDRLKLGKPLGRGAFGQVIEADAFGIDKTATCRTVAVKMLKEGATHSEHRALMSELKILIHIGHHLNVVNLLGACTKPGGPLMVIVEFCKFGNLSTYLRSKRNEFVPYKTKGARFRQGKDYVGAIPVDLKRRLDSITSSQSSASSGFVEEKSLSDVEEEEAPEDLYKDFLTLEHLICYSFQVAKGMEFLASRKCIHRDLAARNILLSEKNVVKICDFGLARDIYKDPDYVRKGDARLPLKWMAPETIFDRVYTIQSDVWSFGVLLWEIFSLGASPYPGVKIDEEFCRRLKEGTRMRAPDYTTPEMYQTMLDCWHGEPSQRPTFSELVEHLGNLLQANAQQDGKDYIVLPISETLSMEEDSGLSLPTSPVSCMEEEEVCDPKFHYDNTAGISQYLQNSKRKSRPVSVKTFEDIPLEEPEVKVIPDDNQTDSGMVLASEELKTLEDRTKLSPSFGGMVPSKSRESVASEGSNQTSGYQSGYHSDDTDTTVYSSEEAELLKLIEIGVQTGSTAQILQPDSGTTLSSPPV

As for `Cc1cc(C)n2nc(Nc3ccccc3)c(C(=O)Nc3ccccc3)c2n1`, the half-maximal inhibitory concentration (IC50) in the assay on Ehrlich was 10 µg/mL (≈ 28 µM).
Turning to `COc1ccc(Nc2nn3c(O)cc(C)nc3c2C(=O)Nc2ccc(Cl)cc2)cc1`, the half-maximal inhibitory concentration (IC50) in the assay on A549 is 5.45 µg/mL (≈ 12.9 µM); in the assay with HepG2, 6.1 µg/mL (≈ 14.4 µM); with MCF7, 4.2 µg/mL (≈ 9.91 µM).
`Oc1ccc(-c2nn3cccnc3c2-c2ccc(O)cc2)cc1`: the relative binding affinity (RBA) in assay [1] was found to be 0.004; in assay [2], 0.1.
`Cc1cc(N/N=C/c2ccc([N+](=O)[O-])o2)n2nccc2n1` came in with an MLC in the assay on Trypanosoma cruzi [3] of 10 µg/mL (≈ 34.9 µM). In the assay on Trypanosoma cruzi [3] (Trypanosoma cruzi), this compound came in with a minimum inhibitory concentration (MIC) of 10 µg/mL (≈ 34.9 µM). Besides, the Activity with Trypanosoma cruzi [4] came out at 63.4%.
With `COc1ccc(Cc2nn3c(-c4ccc(OC)cc4)c(C#N)c(N)nc3c2C(=O)Nc2ccc(Cl)cc2)cc1`, the IC50 in the assay with Ehrlich was determined as 25 µg/mL (≈ 46.4 µM).
Take `CCOC(=O)c1cnc2c(Br)cnn2c1O`: the results for the Ratio IC50 in the assay listed under Oryctolagus cuniculus [5] and in the assay listed under Oryctolagus cuniculus [6] were 0.5 and 1, respectively. Also, the inhibition in the assay filed under Sus scrofa turned out to be 34%.
Regarding `O=c1c(-c2ccsc2)c[nH]c2c(-c3ccccn3)cnn12`, the inhibition in the assay listed under Bos taurus amounted to 98%. Moreover, the Ki worked out at 7 nM in assay [7], 3.9 nM in assay [8], 927 nM in [9] and 740 nM in assay [10].
On to `CCC(CC)Nc1cc(C)nc2c(-c3ccc(Cl)cc3C)c(C)nn12`, for which, in [11], the inhibition constant (Ki) came out at 1.7 nM.
For the compound `N#Cc1cnn2c(Nc3cc(C(F)(F)F)cc(C(F)(F)F)c3)cc(COCCN3CCCCC3)nc12`, the results for the IC50 in the assay on Bel-7402 and in the assay with HT-1080 were 13700 nM and 17600 nM, respectively.
Regarding `CSc1nn2c(NC3CCCCC3)cc(-c3ccccc3)nc2c1C#N`, half-maximal inhibition in the assay on HCT-116 (IC50) required 2 nM.
As to `c1ccc(-c2cnn3cc(-c4ccc(OCCN5CCOCC5)cc4)cnc23)cc1`, the IC50 in assay [12] was 32 nM.
In the case of `Cc1c(-c2ccnc3c(/N=N/c4ccc(F)cc4)c(N)nn23)sc2nc3ccccc3n12`, the IC50 in the assay with Caco-2 was 0.5 µg/mL (≈ 1.13 µM); with BHK-21, 2.3 µg/mL (≈ 5.2 µM).
For the compound `CC1(C)S[C@@H]2[C@H](NC(=O)Cc3ccccc3)C(=O)N2[C@H]1C(=O)O` [PENICILLIN G], the zone of inhibition at 30 µg/mL turned out to be 30.1 mm with Staphylococcus aureus, 33.1 mm in the assay on Escherichia coli, 31.6 mm in the assay with Bacillus subtilis and 28.3 mm in the assay with Pseudomonas aeruginosa.
